Test results published in paper PMC6272605, “Development and Validation of a Docking-Based Virtual Screening Platform for the Identification of New Lactate Dehydrogenase Inhibitors” (Molecules, 2015).

Biological target: T1, purified human lactate dehydrogenase isoform 5 (hLDH5) (Homo sapiens, UniProt P00338)
T1 construct: purchased Lee Biosolution, Inc., St. Louis, MO, USA
Assay: hLDH5 inhibition assay (pyruvate→lactate, NADH fluorescence)
Assay type: biochemical
Conditions: 200 μM pyruvate, 40 μM NADH, phosphate buffer pH 7.4, 15 min incubation
Experimental: LDH assays: The LDH inhibition properties of the selected compounds were evaluated against purified human lactate dehydrogenase isoform 5 (Lee Biosolution, Inc., St. Louis, MO, USA). The “forward” direction (pyruvate→lactate) of the lactate dehydrogenase reaction was conducted, and the kinetic parameters were measured by fluorescence (emission wavelength at 460 nm, excitation wavelength at 340 nm) to monitor the amount of consumed NADH. Assays were carried out in wells containing 200 μL of a reagent solution dissolved in 100 mM phosphate buffer (pH = 7.4). For the IC50 calculations of the compounds, seven different concentrations (in duplicate for each concentration) of the isolated compounds were used to produce the concentration-response curve. All of the compounds were tested in the presence of 200 μM pyruvate and 40 μM NADH. Any background fluorescence likelihood of the tested samples, or NADH fluorescence quenching, was subtracted. In addition to the sample test wells, maximum and minimum controls were also included in each plate. After 15 min of incubation, the final measurements were carried out by using a Victor X3 Microplates Reader (PerkinElmer®). IC50 values were produced using GraphPad Prism software.

IC50	SMILES
91.7 ± 10.7 µM	O=c1cc2oc(O)c3cc(O)c(O)c(O)c3c-2oc1=O [galloflavin]
> 500 µM	O=C(O)CN1CC(c2ccccc2)OC1=O (centres unmarked) [VS3, 2-(2-Oxo-5-phenyloxazolidin-3-yl)acetic acid]
> 500 µM	O=C(O)c1ccc(NCCO)cc1 [VS1, 4-((2-Hydroxyethyl)amino)benzoic acid]
246 ± 10.8 µM	CC(C)C(NC(=O)OCc1ccccc1)C(=O)Nc1ccccc1 (centres unmarked) [VS6]
> 500 µM	Cc1ccc(C)c(C(O)C(=O)O)c1 (centres unmarked) [VS5]
269 ± 58.1 µM	COC(=O)C(NC(=O)c1cc([N+](=O)[O-])cc([N+](=O)[O-])c1)c1ccccc1 (centres unmarked) [VS8]
> 500 µM	O=C(O)CCCC(=O)Nc1ccccc1 [VS4]
> 500 µM	O=C(O)CCC(=O)c1ccc(F)cc1 [VS7]
> 500 µM	Cc1ccc(S(=O)(=O)Nc2ccc(C(=O)O)cc2)cc1 [VS2, 4-(4-Methylphenylsulfonamido)benzoic acid]
51.7 ± 4.2 µM	O=C(O)c1cc2c(C(F)(F)F)cc(-c3ccccc3)cc2n1O [NHI-1]
> 500 µM	Cc1ccc(C(N)C(=O)O)cc1 (centres unmarked) [VS10]

System: LDH
Assay: not given
Design: method as in earlier work
Conditions: Table S1, active compounds included in the enriched dataset; LDH inhibitors binding the open conformation in the presence of NADH; cited from earlier work

SMILES	IC50
Nc1ccc(C(=O)O)cc1 [Compound 4]	0.75 µM
CC(C)(C)OC(=O)CN1CC(c2ccccc2)OC1=O (centres unmarked) [Compound 10]	10 µM
NCC(O)c1ccccc1 (centres unmarked) [Compound 8]	4 µM
COC(=O)c1ccc(N)cc1 [Compound 5]	0.71 µM
COC(=O)c1ccc(NCCO)cc1 [Compound 6]	0.65 µM
Cc1nc2ccc(NC(=O)CCNC(=O)CCCc3ccc(CC(C(=O)O)C(=O)O)cc3)cc2s1 [Compound 2]	12.1 µM
C[C@@H](Nc1nc(-c2cc(C(=O)O)ccc2Cl)cnc1N)c1ccccc1 [Compound 3]	0.48 µM
COC(=O)c1ccc(NS(=O)(=O)c2ccc(C)cc2)cc1 [Compound 7]	7.4 µM
O=C1NCC(c2ccccc2)O1 (centres unmarked) [Compound 9]	14 µM
